Experiments:
Format in all cases: functional
UO-31 = assay: Growth inhibition of human UO31 cells at 10 uM; conditions: read-out: GI
RXF 393 = assay: Growth inhibition of human RXF393 cells at 10 uM; conditions: read-out: GI
CAKI-1 = assay: Growth inhibition of human Caki1 cells
NCI-H460 = assay: Growth inhibition of human NCI-H460 cells
OVCAR-4 = assay: Growth inhibition of human OVCAR4 cells; conditions: for CC50: read-out: LC50 (the source's name)
SK-MEL-2 = assay: Growth inhibition of human SK-MEL-2 cells; conditions: for CC50: read-out: LC50 (the source's name)
T47D = assay: Growth inhibition of human T47D cells; conditions: for CC50: read-out: LC50 (the source's name)
MDA-MB-468 = assay: Growth inhibition of human MDA-MB-468 cells; conditions: for CC50: read-out: LC50 (the source's name)
[1] = Growth inhibition of human NCI60 cells
SF-295 = assay: Growth inhibition of human SF295 cells; conditions: for CC50: read-out: LC50 (the source's name)
NCI-H226 = assay: Growth inhibition of human NCI-H226 cells
IGROV-1 = assay: Growth inhibition of human IGROV1 cells; conditions: for CC50: read-out: LC50 (the source's name)
K562 = assay: Growth inhibition of human K562 cells; conditions: for CC50: read-out: LC50 (the source's name)
TK-10 [2] = assay: Growth inhibition of human TK10 cells; conditions: for CC50: read-out: LC50 (the source's name)
A498 = assay: Growth inhibition of human A498 cells; conditions: for CC50: read-out: LC50 (the source's name)
UACC-62 = assay: Growth inhibition of human UACC62 cells
OVCAR-5 = assay: Growth inhibition of human OVCAR5 cells; conditions: for CC50: read-out: LC50 (the source's name)
COLO 205 = assay: Growth inhibition of human COLO205 cells; conditions: for CC50: read-out: LC50 (the source's name)
HOP-92 = assay: Growth inhibition of human HOP92 cells; conditions: for CC50: read-out: LC50 (the source's name)
TK-10 [3] = assay: Growth inhibition of human TK10 cells at 10 uM; conditions: read-out: GI

Q: For `O=C1NC(=O)C(=Cc2c[nH]c3ccccc23)C(=O)N1`, which inhibition of growth at 10 µM (UO-31) is on record?
A: 39%

Q: Which inhibition of growth at 10 µM (UO-31) does the source give for `Cc1ccc(S(=O)(=O)n2cc(C=C3C(=O)N(C)C(=O)N(C)C3=O)c3ccccc32)cc1` here?
A: 41%

Q: And the inhibition of growth at 10 µM (RXF 393)?
A: 52%

Q: With `O=C1NC(=O)C(=Cc2cn(C(=O)c3ccccc3)c3ccccc23)C(=O)N1` as the molecule, how does the inhibition of growth at 10 µM (UO-31) read?
A: 36%

Q: What about the inhibition of growth at 10 µM (RXF 393) of the same molecule?
A: 55%

Q: What does the source list for `O=C1NC(=O)C(=Cc2cn(Cc3ccccc3)c3ccccc23)C(=O)N1`?
A: GI50 (CAKI-1): 4.6 µM; LC50 (CAKI-1): 93 µM; TGI (CAKI-1): 25.7 µM; inhibition of growth at 10 µM (UO-31): 29%; GI50 (NCI-H460): 0.3 µM; LC50 (NCI-H460): 63 µM; TGI (NCI-H460): 16.5 µM; GI50 (OVCAR-4): 2 µM; TGI (OVCAR-4): 44 µM; CC50 (OVCAR-4): > 100 µM; GI50 (SK-MEL-2): 2.9 µM; TGI (SK-MEL-2): 23.4 µM; CC50 (SK-MEL-2): > 100 µM; GI50 (T47D): 4.5 µM; TGI (T47D): 22.3 µM; CC50 (T47D): 95 µM; GI50 (MDA-MB-468): 0.1 µM; TGI (MDA-MB-468): 0.38 µM; CC50 (MDA-MB-468): > 100 µM; GI50 [1]: 7.5 µM; GI50 (SF-295): 3.3 µM; TGI (SF-295): 70.7 µM; CC50 (SF-295): > 100 µM; GI50 (NCI-H226): 5.4 µM; LC50 (NCI-H226): > 100 µM; TGI (NCI-H226): 28 µM; GI50 (IGROV-1): 0.48 µM; TGI (IGROV-1): 10.4 µM; CC50 (IGROV-1): 63 µM; GI50 (K562): 3.1 µM; TGI (K562): 23 µM; CC50 (K562): > 100 µM; GI50 (TK-10 [2]): 2 µM; TGI (TK-10 [2]): 8.3 µM; CC50 (TK-10 [2]): > 100 µM; GI50 (A498): 0.03 µM; TGI (A498): 0.26 µM; CC50 (A498): 1.09 µM; GI50 (UACC-62): 1.6 µM; LC50 (UACC-62): > 100 µM; TGI (UACC-62): 16.5 µM; GI50 (OVCAR-5): 0.3 µM; TGI (OVCAR-5): 3.8 µM; CC50 (OVCAR-5): 39.8 µM; GI50 (COLO 205): 1.4 µM; TGI (COLO 205): 10.9 µM; CC50 (COLO 205): 41.6 µM; GI50 (HOP-92): 1.5 µM; TGI (HOP-92): 15 µM; CC50 (HOP-92): 58.8 µM; inhibition of growth at 10 µM (TK-10 [3]): 71%

Q: Which inhibition of growth at 10 µM (UO-31) does the source give for `O=C1NC(=O)C(=Cc2cn(C(=O)c3ccc(Cl)cc3)c3ccccc23)C(=O)N1` here?
A: 22%

Q: For `CN1C(=O)C(=Cc2c[nH]c3ccccc23)C(=O)N(C)C1=O`, which inhibition of growth at 10 µM (UO-31) is on record?
A: 33%

Q: For `CN1C(=O)C(=Cc2cn(C(=O)c3ccc(Cl)cc3)c3ccccc23)C(=O)N(C)C1=O`, which inhibition of growth at 10 µM (RXF 393) is on record?
A: 33%

Q: What does the source list for `CN1C(=O)C(=Cc2cn(Cc3ccccc3)c3ccccc23)C(=O)N(C)C1=O`?
A: GI50 (CAKI-1): 0.5 µM; LC50 (CAKI-1): > 100 µM; TGI (CAKI-1): 6.4 µM; inhibition of growth at 10 µM (UO-31): 36%; GI50 (NCI-H460): 4.1 µM; LC50 (NCI-H460): > 100 µM; TGI (NCI-H460): > 100 µM; GI50 (OVCAR-4): 6.1 µM; TGI (OVCAR-4): > 100 µM; CC50 (OVCAR-4): > 100 µM; GI50 (SK-MEL-2): 3 µM; TGI (SK-MEL-2): 45.7 µM; CC50 (SK-MEL-2): > 100 µM; GI50 (T47D): 5 µM; TGI (T47D): > 100 µM; CC50 (T47D): > 100 µM; GI50 (MDA-MB-468): 0.02 µM; TGI (MDA-MB-468): 0.06 µM; CC50 (MDA-MB-468): 0.69 µM; GI50 [1]: 13.8 µM; GI50 (SF-295): 1.1 µM; TGI (SF-295): > 100 µM; CC50 (SF-295): > 100 µM; GI50 (NCI-H226): 3.4 µM; LC50 (NCI-H226): > 100 µM; TGI (NCI-H226): 27 µM; GI50 (IGROV-1): 0.06 µM; TGI (IGROV-1): 0.26 µM; CC50 (IGROV-1): 0.85 µM; GI50 (K562): 4.3 µM; TGI (K562): > 100 µM; CC50 (K562): > 100 µM; GI50 (TK-10 [2]): 3.1 µM; TGI (TK-10 [2]): 57.5 µM; CC50 (TK-10 [2]): > 100 µM; GI50 (A498): 0.2 µM; TGI (A498): 0.64 µM; CC50 (A498): 2.29 µM; GI50 (UACC-62): 1 µM; LC50 (UACC-62): > 100 µM; TGI (UACC-62): 12.5 µM; GI50 (OVCAR-5): 0.1 µM; TGI (OVCAR-5): 0.67 µM; CC50 (OVCAR-5): > 100 µM; GI50 (COLO 205): 0.7 µM; TGI (COLO 205): 9.1 µM; CC50 (COLO 205): > 100 µM; GI50 (HOP-92): 8.3 µM; TGI (HOP-92): 50 µM; CC50 (HOP-92): > 100 µM; inhibition of growth at 10 µM (TK-10 [3]): 95%; inhibition of growth at 10 µM (RXF 393): 43%

Q: Which inhibition of growth at 10 µM (UO-31) does the source give for `Cc1ccc(S(=O)(=O)n2cc(C=C3C(=O)NC(=O)NC3=O)c3ccccc32)cc1` here?
A: 32%

Q: For `CN1C(=O)C(=Cc2cn(C(=O)c3ccccc3)c3ccccc23)C(=O)N(C)C1=O`, which inhibition of growth at 10 µM (UO-31) is on record?
A: 36%

Q: And the inhibition of growth at 10 µM (RXF 393)?
A: 55%

Q: Which GI50 [1] does the source give for `O=c1[nH]cc(F)c(=O)[nH]1` [FLUOROURACIL] here?
A: 17.7 µM

Q: For `COc1ccc2c(c1)c(CC(=O)O)c(C)n2C(=O)c1ccc(Cl)cc1` [INDOMETHACIN], which GI50 [1] is on record?
A: 64.3 µM
